Measurements taken from US20200000822A1, “METHODS OF TREATMENT FOR CANCER, STEROL HOMEOSTASIS, AND NEUROLOGICAL DISEASES” (BOARD OF REGENTS, THE UNIVERSITY OF TEXAS SYSTEM, priority 2017, published 2020).
“Also recorded” adds a separate entry of the source.

Assays:
[1] = molecular target: sigma-2 receptor (Homo sapiens, UniProt Q5BJF2); test: ^3H DTG competition binding in MCF-7 cell membranes; conditions: competition with 30 nM ^3H DTG
Description: Membranes were prepared from PC-12, MCF-7, Sf9, or Expi293 cells. In brief, adherent cells were washed with ice cold PBS or HBS and harvested with a cell scraper, while suspension cells were simply pelleted. Cell pellets were suspended in 20 mM HEPES pH 7.5, 2 mM magnesium chloride, and 1:100,000 (v:v) benzonase nuclease (Sigma Aldrich) and supplemented with cOmplete Mini, EDTA-free Protease Inhibitor Cocktail Tablets (Roche). Following dounce homogenization, the cells were centrifuged at 50,000×g for 20 minutes. The supernatant was discarded and the membranes were washed one more time with cold 50 mM Tris pH 8.0 containing cOmplete Mini, EDTA-free Protease Inhibitor Cocktail Tablets (Roche, 1 tablet per 50 mL buffer). […] Protein content was assessed by DC protein assay (Bio-Rad) according to manufacturer's instructions. […]
1.8 μM (+)SKF-10,047 was included to block 1l receptor sites in all MCF-7 membranes binding assays and in Sf9 membranes when testing TMEM97 ligands. […] After the membranes were transferred to the filters and washed, the filters were soaked in 5 mL Cytoscint scintillation fluid overnight and radioactivity was measured using a Beckman Coulter LS 6500 scintillation counter. Data were analyzed using software from Graphpad Prism. […]

[2] = molecular target: T1, human TMEM97 (Homo sapiens, UniProt Q5BJF2); test: ^3H DTG competition binding in Sf9 insect membranes overexpressing TMEM97; conditions: competition with 30 nM ^3H DTG
T1 construct: made in house; host or cells: Sf9 insect cells (baculovirus, pVL1392, BestBac)
T1 sequence (Q5BJF2 whole entry): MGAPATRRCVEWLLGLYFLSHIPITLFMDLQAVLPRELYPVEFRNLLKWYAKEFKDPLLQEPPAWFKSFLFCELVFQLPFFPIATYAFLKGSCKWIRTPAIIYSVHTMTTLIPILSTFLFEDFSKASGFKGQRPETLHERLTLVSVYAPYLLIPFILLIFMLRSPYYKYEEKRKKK
Description: For insect cell expression, human TMEM97 was cloned into the vector pVL1392, and baculovirus was prepared using the BestBac system (Expression Systems) in accordance with manufacturer's instructions. For large scale production, Sf9 insect cells were infected at a density of 4×10^6 cells/mL and then shaken at 27° C. for 60 hours prior to harvest.
(§1) Membranes were prepared from PC-12, MCF-7, Sf9, or Expi293 cells. In brief, adherent cells were washed with ice cold PBS or HBS and harvested with a cell scraper, while suspension cells were simply pelleted. Cell pellets were suspended in 20 mM HEPES pH 7.5, 2 mM magnesium chloride, and 1:100,000 (v:v) benzonase nuclease (Sigma Aldrich) and supplemented with cOmplete Mini, EDTA-free Protease Inhibitor Cocktail Tablets (Roche). Following dounce homogenization, the cells were centrifuged at 50,000×g for 20 minutes. The supernatant was discarded and the membranes were washed one more time with cold 50 mM Tris pH 8.0 containing cOmplete Mini, EDTA-free Protease Inhibitor Cocktail Tablets (Roche, 1 tablet per 50 mL buffer). The membranes were centrifuged once more at 50,000× for 20 minutes, and then resuspended in a variable volume of cold 50 mM Tris pH 8.0 with the same protease inhibitor cocktail. Protein content was assessed by DC protein assay (Bio-Rad) according to manufacturer's instructions. Membranes were aliquoted, flash frozen, and stored at −80° C. until use in the radioligand binding experiments described below.
1.8 μM (+)SKF-10,047 was included to block 1l receptor sites in all MCF-7 membranes binding assays and in Sf9 membranes when testing TMEM97 ligands. Reactions were incubated for 90 minutes at 37° C., and were then terminated by filtration through a glass fiber filter using a Brandel cell harvester. Glass fiber filters were soaked in 0.3% polyethylenimine for at least 30 minutes at room temperature prior to harvesting. All reactions were performed in triplicate using a 96-well block. After the membranes were transferred to the filters and washed, the filters were soaked in 5 mL Cytoscint scintillation fluid overnight and radioactivity was measured using a Beckman Coulter LS 6500 scintillation counter. Data were analyzed using software from Graphpad Prism. Ki values were computed directly without the use of the Cheng-Prusoff correction using the Graphpad Prism software.

[3] = molecular target: T2, PGRMC1 (Homo sapiens, UniProt O00264); test: single-point ^3H DTG binding, HEK293 cells overexpressing PGRMC1; conditions: 10 nM ^3H DTG
T2 construct: mCardinal (behind the 2A skip peptide, reporter of transfection) (C, cleaved yes); expressed in transfected cells
T2 sequence (O00264 whole entry, species assumed): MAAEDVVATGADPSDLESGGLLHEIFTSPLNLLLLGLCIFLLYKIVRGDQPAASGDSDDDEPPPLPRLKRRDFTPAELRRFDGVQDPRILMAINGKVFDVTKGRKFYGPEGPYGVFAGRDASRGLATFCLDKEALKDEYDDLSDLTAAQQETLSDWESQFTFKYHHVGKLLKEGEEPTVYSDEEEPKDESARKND
Description: Eight selected hits from LC-MS/MS were cloned into a pTARGET vector (Promega), followed by a porcine teschovirus-1 2A skip peptide ([…] (SEQ ID NO: 3)) and by the fluorescent protein mCardinal40 to assess transfection efficiency. Plasmids were transfected into Expi293 cells (Thermo Fisher) according to manufacturer's instructions. After 36 hours, expression of each target protein was confirmed by flow cytometry analysis of mCardinal fluorescence levels. Receptor point mutants were generated by site-directed mutagenesis using KAPA polymerase (KAPA Biosystems), and resulting constructs were expressed in Expi293 cells as described above.
Membranes were prepared from PC-12, MCF-7, Sf9, or Expi293 cells. In brief, adherent cells were washed with ice cold PBS or HBS and harvested with a cell scraper, while suspension cells were simply pelleted. Cell pellets were suspended in 20 mM HEPES pH 7.5, 2 mM magnesium chloride, and 1:100,000 (v:v) benzonase nuclease (Sigma Aldrich) and supplemented with cOmplete Mini, EDTA-free Protease Inhibitor Cocktail Tablets (Roche). […] Protein content was assessed by DC protein assay (Bio-Rad) according to manufacturer's instructions. […]
Membrane radioligand binding assays were performed as described 41 with slight modifications. […] Radioactivity was measured by liquid scintillation counting.

[4] = test system: Tmem97 mRNA; test: siRNA knockdown of Tmem97 in PC-12 cells, qPCR of mRNA; type: cell-based, Rattus norvegicus; conditions: 10 nM siRNA
Description: A pair of siRNA oligos were designed against Rattus norvegicus Tmem97 mRNA using the Stealth RNAi™ tool available through ThermoFisher Scientific. The sense strand for the siRNA was 5′-[…]-3′ (SEQ ID NO: 4), and the antisense strand was 5′-[…]-3′ (SEQ ID NO: 5). As a control, we used the AllStars Negative Control siRNA™ from Qiagen. For the transfection, 2.2×10^6 PC-12 cells suspended in 8.0 mL of DMEM with 10% FBS and 10 μg/mL of gentamicin were placed in a 10 cm dish and immediately transfected with a 2.0 mL solution containing 20 μL of Lipofectamine® RNAimax from ThermoFisher Scientific and 10 nM of either the control or Tmem97 siRNA. After 24 hours, the media was changed for fresh media, and the cells were transfected again in the same way. 48 hours after the first transfection, the cells were trypsinized and split 1:2 into two new 10 cm plates. On the 5th day after the first transfection, cells were harvested by trypsinization and centrifugation, and 10% were set aside for RNA extraction while 90% were used for binding analysis. […]
After preparation of the cDNA was complete, real-time quantitative PCR (qPCR) was performed on a QuantStudio 6 qPCR instrument at the Harvard Medical School Center for Molecular Interactions using PowerUp™ SYBR® Green Master Mix from Applied Biosystems Life Technologies. […] Fold differences in Tmem97 expression levels were calculated using the ΔΔCT method 43. […]

[5] = molecular target: T3, sigma-2 receptor (Rattus norvegicus, UniProt Q5U3Y7); test: siRNA knockdown of Tmem97 in PC-12 cells, sigma-2 expression by saturating ^3H DTG binding; type: cell-based; conditions: compared with mRNA reduction
T3 construct: endogenous in cells; host or cells: PC-12 cells
T3 sequence (Q5U3Y7 1-176): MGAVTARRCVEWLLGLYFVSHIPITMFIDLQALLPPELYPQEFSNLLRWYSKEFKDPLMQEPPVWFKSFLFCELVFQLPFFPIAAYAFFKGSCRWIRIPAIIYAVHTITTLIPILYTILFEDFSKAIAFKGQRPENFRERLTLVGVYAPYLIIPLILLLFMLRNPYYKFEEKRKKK
Description: as §1, with “Cell pellets were suspended in 20 mM HEPES pH 7.5, 2 mM magnesium chloride, and 1:100,000 (v:v) benzonase nuclease (Sigma Aldrich) and supplemented with cOmplete Mini, EDTA-free Protease Inhibitor Cocktail Tablets (Roche).” left out, “-80°” for “−80°”, “below. Membrane radioligand binding assays were performed as described 41 with slight modifications. […] Samples were incubated at room temperature with shaking for 1.5 hours, at which time the reaction was terminated by the addition of ice-cold water. Samples were then applied to glass fiber filters (Merck Millipore) that had been pre-treated with 0.3% (v/v) polyethylenimine. […] Radioactivity was measured by liquid scintillation counting. […]” for “below.”

sigma-2 receptor (Homo sapiens, UniProt Q5BJF2), sequence (Q5BJF2 whole entry, species assumed): as the sequence (Q5BJF2 whole entry) above

| Compound | affinity of the ligand for TMEM97 compared with previously reported affinities [2] | other results |
| --- | --- | --- |
| C=CCN(C)CCCCCCOc1ccc(C(=O)c2ccc(Br)cc2)c(F)c1 [Ro 48-8071, (4-Bromophenyl)-[2-fluoro-4-[6-[methyl(prop-2-enyl)amino]hexoxy]phenyl]methanone] | essentially identical to previously reported affinities | binding affinity in MCF-7 cell membranes compared with Sf9 membranes overexpressing TMEM97 [1]: identical in both |
| COc1cccc2c1CCCC2CCCN1CCN(C2CCCCC2)CC1 (centres unmarked) [PB-28] | essentially identical to previously report sigma-2 receptor binding affinities; also recorded: essentially identical to previously reported affinities |  |
| (+)-SKF-10,047 | essentially identical to previously report sigma-2 receptor binding affinities; also recorded: essentially identical to previously reported affinities |  |
| COc1cc2c(cc1OC)CN(CCc1ccc(NC(=O)c3cccc4c(=O)c5cccc(OC)c5[nH]c34)cc1)CC2 [Elacridar] | essentially identical to previously reported affinities | binding affinity in MCF-7 cell membranes compared with Sf9 membranes overexpressing TMEM97 [1]: identical in both |
| Cc1ccccc1NC(=N)Nc1ccccc1C [^3H DTG, ^3H 1,3-di-o-tolylguanidine] |  | ^3H DTG binding [3]: did not lead to increased |
| siRNA: siRNA against Rattus norvegicus Tmem97 mRNA; sense strand 5′-CAACCUGUUGCGGUGGUACUCUAAG-3′ (SEQ ID NO: 4) (antisense CUUAGAGUACCACCGCAACAGGUUG; chemistry not given here) |  | reduction of Tmem97 mRNA expression [4]: ~60%; reduction in sigma-2 expression levels by saturating ^3H DTG binding [5]: near identical reduction |
| CC(C)=CCN1CCC2(C)c3cc(O)ccc3CC1C2C (single isomer, unassigned; (+)) [(+)-pentazocine] | essentially identical to previously report sigma-2 receptor binding affinities; also recorded: essentially identical to previously reported affinities |  |
| O=C(CCCN1CCC(O)(c2ccc(Cl)cc2)CC1)c1ccc(F)cc1 [haloperidol] | essentially identical to previously report sigma-2 receptor binding affinities; also recorded: essentially identical to previously reported affinities |  |
